Measurements: patent publication US10405547B2, “Substituted cyclic amides as herbicides” (FMC Corporation, priority 2015, dated 2019)

Legend:
Type in all cases: in vivo
[1] = test system: barnyardgrass (Echinochloa crus-galli); assay: Test A preemergence, barnyardgrass; details: 0 to 100 scale (0 no effect, 100 complete control)
Summary of the method: (§1)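 Greenhouse pot test in loam/sand soil. Pre: directed soil spray after seeding. Post: 1–2-leaf plants, 2–10 cm. Formulation: non-phytotoxic solvent + surfactant. Visual rating vs untreated controls at ~10 d, 0 (no effect) to 100 (complete control).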

kochia (Kochia scoparia) [2] = assay: Test A preemergence, kochia; details: 0 to 100 scale (0 no effect, 100 complete control)
Summary of the method: as §1

[3] = test system: ragweed (common ragweed, Ambrosia elatior); assay: Test A preemergence, ragweed; details: 0 to 100 scale (0 no effect, 100 complete control)
Summary of the method: as §1

[4] = test system: ryegrass, Italian (Lolium multiflorum); assay: Test A preemergence, Italian ryegrass; details: 0 to 100 scale (0 no effect, 100 complete control)
Summary of the method: as §1

[5] = test system: foxtail, giant (Setaria faberii); assay: Test A preemergence, giant foxtail; details: 0 to 100 scale (0 no effect, 100 complete control)
Summary of the method: as §1

[6] = test system: pigweed (Amaranthus retroflexus); assay: Test A preemergence, pigweed; details: 0 to 100 scale (0 no effect, 100 complete control)
Summary of the method: as §1

[7] = test system: barnyardgrass (Echinochloa crus-galli); assay: Test A postemergence, barnyardgrass; details: visual injury, 0 to 100 scale (0 no effect, 100 complete control), approximately 10 days
Summary of the method: as §1

kochia (Kochia scoparia) [8] = assay: Test A postemergence, kochia; details: visual injury, 0 to 100 scale (0 no effect, 100 complete control), approximately 10 days
Summary of the method: as §1

[9] = test system: ragweed (common ragweed, Ambrosia elatior); assay: Test A postemergence, ragweed; details: visual injury, 0 to 100 scale (0 no effect, 100 complete control), approximately 10 days
Summary of the method: as §1

[10] = test system: ryegrass, Italian (Lolium multiflorum); assay: Test A postemergence, Italian ryegrass; details: visual injury, 0 to 100 scale (0 no effect, 100 complete control), approximately 10 days
Summary of the method: as §1

[11] = test system: foxtail, giant (Setaria faberii); assay: Test A postemergence, giant foxtail; details: visual injury, 0 to 100 scale (0 no effect, 100 complete control), approximately 10 days
Summary of the method: as §1

[12] = test system: pigweed (Amaranthus retroflexus); assay: Test A postemergence, pigweed; details: visual injury, 0 to 100 scale (0 no effect, 100 complete control), approximately 10 days
Summary of the method: as §1

[13] = test system: blackgrass (Alopecurus myosuroides); assay: Test A postemergence, blackgrass; details: visual injury, 0 to 100 scale (0 no effect, 100 complete control), approximately 10 days
Summary of the method: as §1

[14] = test system: galium (catchweed bedstraw, Galium aparine); assay: Test A postemergence, galium; details: visual injury, 0 to 100 scale (0 no effect, 100 complete control), approximately 10 days
Summary of the method: as §1

[15] = test system: wheat (Triticum aestivum); assay: Test A postemergence, wheat; details: visual injury, 0 to 100 scale (0 no effect, 100 complete control), approximately 10 days
Summary of the method: as §1

corn (Zea mays) = assay: Test A postemergence, corn; details: visual injury, 0 to 100 scale (0 no effect, 100 complete control), approximately 10 days
Summary of the method: as §1

rice (Oryza sativa) = assay: Test B flooded paddy test, rice; details: 500 g ai/ha, applied to paddy water, visual rating after 13 to 15 days, scale 0 (no effect) to 100 (complete control)
Summary of the method: (§2)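 Under a constant 3 cm flood, test compounds went directly into the paddy water. Following 13 to 15 days of greenhouse growth, treated species and controls were compared by eye.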

[16] = test system: sedge, umbrella (small-flower umbrella sedge, Cyperus difformis); assay: Test B flooded paddy test, umbrella sedge; details: 500 g ai/ha, applied to paddy water, visual rating after 13 to 15 days, scale 0 (no effect) to 100 (complete control)
Summary of the method: as §2

[17] = test system: ducksalad (Heteranthera limosa); assay: Test B flooded paddy test, ducksalad; details: 500 g ai/ha, applied to paddy water, visual rating after 13 to 15 days, scale 0 (no effect) to 100 (complete control)
Summary of the method: as §2

[18] = test system: barnyardgrass (Echinochloa crus-galli); assay: Test B flooded paddy test, barnyardgrass; details: 500 g ai/ha, applied to paddy water, visual rating after 13 to 15 days, scale 0 (no effect) to 100 (complete control)
Summary of the method: as §2

| Compound | Plant response rating, Barnyardgrass ([1]; 125 g ai/ha) | Plant response rating, Barnyardgrass ([1]; 500 g ai/ha) | Plant response rating, Kochia (kochia (Kochia scoparia) [2]; 125 g ai/ha) | Plant response rating, Kochia (kochia (Kochia scoparia) [2]; 500 g ai/ha) | Plant response rating, Ragweed ([3]; 125 g ai/ha) | Plant response rating, Ragweed ([3]; 500 g ai/ha) | Plant response rating, Ryegrass, Italian ([4]; 125 g ai/ha) | Plant response rating, Ryegrass, Italian ([4]; 500 g ai/ha) | Plant response rating, Foxtail, Giant ([5]; 125 g ai/ha) | Plant response rating, Foxtail, Giant ([5]; 500 g ai/ha) | Plant response rating, Pigweed ([6]; 125 g ai/ha) | Plant response rating, Pigweed ([6]; 500 g ai/ha) | Plant response rating, Barnyardgrass ([7]; 125 g ai/ha) | Plant response rating, Barnyardgrass ([7]; 500 g ai/ha) | Plant response rating, Kochia (kochia (Kochia scoparia) [8]; 125 g ai/ha) | Plant response rating, Kochia (kochia (Kochia scoparia) [8]; 500 g ai/ha) | Plant response rating, Ragweed ([9]; 125 g ai/ha) | Plant response rating, Ragweed ([9]; 500 g ai/ha) | Plant response rating, Ryegrass, Italian ([10]; 125 g ai/ha) | Plant response rating, Ryegrass, Italian ([10]; 500 g ai/ha) | further results |
| --- | --- | --- | --- | --- | --- | --- | --- | --- | --- | --- | --- | --- | --- | --- | --- | --- | --- | --- | --- | --- | --- |
| O=C1NCC(c2cccc(OCc3ccccc3)c2)C1C(=O)Nc1ccc(F)cc1F (stereo not drawn) [Compound 64] | 0 | 0 | 0 | 0 | 0 | 0 | 0 | 0 | 0 | 0 | 0 | 0 | 0 | 0 | 0 | 0 | 0 | 0 | 0 | 0 | Plant response rating, Foxtail, Giant ([11]; 125 g ai/ha): 0; Plant response rating, Foxtail, Giant ([11]; 500 g ai/ha): 0; Plant response rating, Pigweed ([12]; 125 g ai/ha): 0; Plant response rating, Pigweed ([12]; 500 g ai/ha): 0; Plant response rating, Blackgrass ([13]; 125 g ai/ha): 0; Plant response rating, Blackgrass ([13]; 500 g ai/ha): 0; Plant response rating, Galium ([14]; 125 g ai/ha): 0; Plant response rating, Galium ([14]; 500 g ai/ha): 0; Plant response rating, Wheat ([15]; 125 g ai/ha): 0; Plant response rating, Wheat ([15]; 500 g ai/ha): 0; Plant response rating, Corn (corn (Zea mays); 125 g ai/ha): 0; Plant response rating, Corn (corn (Zea mays); 500 g ai/ha): 0; Plant response rating, Rice (Flood) (rice (Oryza sativa)): 0; Plant response rating, Sedge, Umbrella (Flood) [16]: 0; Plant response rating, Ducksalad (Flood) [17]: 35; Plant response rating, Barnyardgrass (Flood) [18]: 0 |
| O=C1NCC(c2cccc(OCc3ccccc3)c2)C1C(=O)Nc1cccc(F)c1F (stereo not drawn) [Compound 65] | 0 | 0 | 0 | 0 | 0 | 0 | 0 | 0 | 0 | 0 | 0 | 0 | 0 | 0 | 0 | 0 | 0 | 0 | 0 | 0 | Plant response rating, Foxtail, Giant ([11]; 125 g ai/ha): 0; Plant response rating, Foxtail, Giant ([11]; 500 g ai/ha): 0; Plant response rating, Pigweed ([12]; 125 g ai/ha): 0; Plant response rating, Pigweed ([12]; 500 g ai/ha): 0; Plant response rating, Blackgrass ([13]; 125 g ai/ha): 0; Plant response rating, Blackgrass ([13]; 500 g ai/ha): 0; Plant response rating, Galium ([14]; 125 g ai/ha): 0; Plant response rating, Galium ([14]; 500 g ai/ha): 0; Plant response rating, Wheat ([15]; 125 g ai/ha): 0; Plant response rating, Wheat ([15]; 500 g ai/ha): 0; Plant response rating, Corn (corn (Zea mays); 125 g ai/ha): 0; Plant response rating, Corn (corn (Zea mays); 500 g ai/ha): 0; Plant response rating, Rice (Flood) (rice (Oryza sativa)): 0; Plant response rating, Sedge, Umbrella (Flood) [16]: 0; Plant response rating, Ducksalad (Flood) [17]: 0; Plant response rating, Barnyardgrass (Flood) [18]: 0 |
| O=C1NCC(c2cccc(OCc3ccccc3)c2)C1C(=O)Nc1ccc(F)c(F)c1F (stereo not drawn) [Compound 66] | 0 | 0 | 0 | 0 | 0 | 0 | 0 | 0 | 0 | 0 | 0 | 0 | 0 | 0 | 0 | 0 | 0 | 0 | 0 | 0 | Plant response rating, Foxtail, Giant ([11]; 125 g ai/ha): 0; Plant response rating, Foxtail, Giant ([11]; 500 g ai/ha): 0; Plant response rating, Pigweed ([12]; 125 g ai/ha): 0; Plant response rating, Pigweed ([12]; 500 g ai/ha): 0; Plant response rating, Blackgrass ([13]; 125 g ai/ha): 0; Plant response rating, Blackgrass ([13]; 500 g ai/ha): 0; Plant response rating, Galium ([14]; 125 g ai/ha): 0; Plant response rating, Galium ([14]; 500 g ai/ha): 0; Plant response rating, Wheat ([15]; 125 g ai/ha): 0; Plant response rating, Wheat ([15]; 500 g ai/ha): 0; Plant response rating, Corn (corn (Zea mays); 125 g ai/ha): 0; Plant response rating, Corn (corn (Zea mays); 500 g ai/ha): 0; Plant response rating, Rice (Flood) (rice (Oryza sativa)): 0; Plant response rating, Sedge, Umbrella (Flood) [16]: 0; Plant response rating, Ducksalad (Flood) [17]: 0; Plant response rating, Barnyardgrass (Flood) [18]: 0 |
| O=C1NCC(c2cccc(OCc3ccccc3)c2)C1C(=O)Nc1ccccc1Cl (stereo not drawn) [Compound 67] | 0 | 0 | 0 | 0 | 0 | 0 | 0 | 0 | 0 | 0 | 0 | 0 | 0 | 0 | 0 | 0 | 0 | 0 | 0 | 0 | Plant response rating, Foxtail, Giant ([11]; 125 g ai/ha): 0; Plant response rating, Foxtail, Giant ([11]; 500 g ai/ha): 0; Plant response rating, Pigweed ([12]; 125 g ai/ha): 0; Plant response rating, Pigweed ([12]; 500 g ai/ha): 0; Plant response rating, Blackgrass ([13]; 125 g ai/ha): 0; Plant response rating, Blackgrass ([13]; 500 g ai/ha): 0; Plant response rating, Galium ([14]; 125 g ai/ha): 0; Plant response rating, Galium ([14]; 500 g ai/ha): 0; Plant response rating, Wheat ([15]; 125 g ai/ha): 0; Plant response rating, Wheat ([15]; 500 g ai/ha): 0; Plant response rating, Corn (corn (Zea mays); 125 g ai/ha): 0; Plant response rating, Corn (corn (Zea mays); 500 g ai/ha): 0; Plant response rating, Rice (Flood) (rice (Oryza sativa)): 0; Plant response rating, Sedge, Umbrella (Flood) [16]: 0; Plant response rating, Ducksalad (Flood) [17]: 0; Plant response rating, Barnyardgrass (Flood) [18]: 0 |
| O=C1NCC(c2cccc(Oc3ccccn3)c2)C1C(=O)Nc1cccc(F)c1F (stereo not drawn) [Compound 68] | 20 | 50 | 0 | 0 | 0 | 0 | 0 | 0 | 60 | 90 | 0 | 0 | 10 | 40 | 0 | 0 | 0 | 0 | 0 | 0 | Plant response rating, Foxtail, Giant ([11]; 125 g ai/ha): 0; Plant response rating, Foxtail, Giant ([11]; 500 g ai/ha): 60; Plant response rating, Pigweed ([12]; 125 g ai/ha): 0; Plant response rating, Pigweed ([12]; 500 g ai/ha): 0; Plant response rating, Blackgrass ([13]; 125 g ai/ha): 0; Plant response rating, Blackgrass ([13]; 500 g ai/ha): 20; Plant response rating, Galium ([14]; 125 g ai/ha): 0; Plant response rating, Galium ([14]; 500 g ai/ha): 0; Plant response rating, Wheat ([15]; 125 g ai/ha): 0; Plant response rating, Wheat ([15]; 500 g ai/ha): 0; Plant response rating, Corn (corn (Zea mays); 125 g ai/ha): 0; Plant response rating, Corn (corn (Zea mays); 500 g ai/ha): 0; Plant response rating, Rice (Flood) (rice (Oryza sativa)): 0; Plant response rating, Sedge, Umbrella (Flood) [16]: 0; Plant response rating, Ducksalad (Flood) [17]: 80; Plant response rating, Barnyardgrass (Flood) [18]: 20 |
